Measurements reported in patent US12077503B2, “Substituted cyclic amides and their use as herbicides” (FMC CORPORATION, priority 2015, dated 2024).

Tests used:
Assay type in all cases: in vivo
[1] = test system: barnyardgrass (Echinochloa crus-galli); test: Test A preemergence; details: Echinochloa crus-galli, pre-emergence, 240 h, read-out: Plant response rating, Barnyardgrass; for pest or weed control at 125 g/ha: 125 g ai/ha, preemergence, visual rating after approx. 10 d, 0 to 100 scale where 0 is no effect and 100 is complete control; for pest or weed control at 31 g/ha: Preemergence, 31 g ai/ha, 0 to 100 scale (0 no effect, 100 complete control)
Summary of the method: (§1)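 Seeds sprayed preemergence with a directed soil spray, or plants at 2 to 10 cm height and one- to two-leaf stage sprayed postemergence, with test chemicals in a non-phytotoxic solvent mixture containing surfactant, in loam soil–sand blend. Injury rated visually against untreated controls after about 10 d in greenhouse, 0 (no effect) to 100 (complete control).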

[2] = test system: ragweed (common ragweed, Ambrosia elatior); test: Test A preemergence; details: Ambrosia artemisiifolia, pre-emergence, 240 h, read-out: Plant response rating, Ragweed; for pest or weed control at 125 g/ha: 125 g ai/ha, preemergence, visual rating after approx. 10 d, 0 to 100 scale where 0 is no effect and 100 is complete control; for pest or weed control at 31 g/ha: Preemergence, 31 g ai/ha, 0 to 100 scale (0 no effect, 100 complete control)
Summary of the method: as §1

Kochia (Kochia scoparia) [3] = test: Test A preemergence; details: Bassia scoparia, pre-emergence, 240 h, read-out: Plant response rating, Kochia; for pest or weed control at 125 g/ha: 125 g ai/ha, preemergence, visual rating after approx. 10 d, 0 to 100 scale where 0 is no effect and 100 is complete control; for pest or weed control at 31 g/ha: Preemergence, 31 g ai/ha, 0 to 100 scale (0 no effect, 100 complete control)
Summary of the method: as §1

[4] = test system: pigweed (Amaranthus retroflexus); test: Test A preemergence; details: Amaranthus retroflexus, pre-emergence, 240 h, read-out: Plant response rating, Pigweed; for pest or weed control at 125 g/ha: 125 g ai/ha, preemergence, visual rating after approx. 10 d, 0 to 100 scale where 0 is no effect and 100 is complete control; for pest or weed control at 31 g/ha: Preemergence, 31 g ai/ha, 0 to 100 scale (0 no effect, 100 complete control)
[5] = test system: giant foxtail (Setaria faberii); test: Test A preemergence; details: Setaria faberi, pre-emergence, 240 h, read-out: Plant response rating, Foxtail, Giant; for pest or weed control at 125 g/ha: 125 g ai/ha, preemergence, visual rating after approx. 10 d, 0 to 100 scale where 0 is no effect and 100 is complete control; for pest or weed control at 31 g/ha: Preemergence, 31 g ai/ha, 0 to 100 scale (0 no effect, 100 complete control)
Summary of the method: as §1

[6] = test system: ryegrass, Italian (Italian ryegrass, Lolium multiflorum); test: Test A preemergence; details: Lolium multiflorum, pre-emergence, 240 h, read-out: Plant response rating, Ryegrass, Italian; for pest or weed control at 125 g/ha: 125 g ai/ha, preemergence, visual rating after approx. 10 d, 0 to 100 scale where 0 is no effect and 100 is complete control; for pest or weed control at 31 g/ha: Preemergence, 31 g ai/ha, 0 to 100 scale (0 no effect, 100 complete control)
Summary of the method: as §1

[7] = test system: barnyardgrass (Echinochloa crus-galli); test: Test A postemergence; details: Echinochloa crus-galli, post-emergence, 240 h, read-out: Plant response rating, Barnyardgrass; for pest or weed control at 125 g/ha: 125 g ai/ha, postemergence, visual injury after approximately 10 d, 0 to 100 scale (0 no effect, 100 complete control); for pest or weed control at 31 g/ha: Postemergence, 31 g ai/ha, visual injury after approx. 10 d, 0 to 100 scale, 0 no effect, 100 complete control
Summary of the method: as §1

[8] = test system: ragweed (common ragweed, Ambrosia elatior); test: Test A postemergence; details: Ambrosia artemisiifolia, post-emergence, 240 h, read-out: Plant response rating, Ragweed; for pest or weed control at 125 g/ha: 125 g ai/ha, postemergence, visual injury after approximately 10 d, 0 to 100 scale (0 no effect, 100 complete control); for pest or weed control at 31 g/ha: Postemergence, 31 g ai/ha, visual injury after approx. 10 d, 0 to 100 scale, 0 no effect, 100 complete control
Summary of the method: as §1

[9] = test system: Galium (catchweed bedstraw, Galium aparine); test: Test A postemergence; details: Galium, post-emergence, 240 h, read-out: Plant response rating, Galium; for pest or weed control at 125 g/ha: 125 g ai/ha, postemergence, visual injury after approximately 10 d, 0 to 100 scale (0 no effect, 100 complete control); for pest or weed control at 31 g/ha: Postemergence, 31 g ai/ha, visual injury after approx. 10 d, 0 to 100 scale, 0 no effect, 100 complete control
Summary of the method: as §1

Kochia (Kochia scoparia) [10] = test: Test A postemergence; details: Bassia scoparia, post-emergence, 240 h, read-out: Plant response rating, Kochia; for pest or weed control at 125 g/ha: 125 g ai/ha, postemergence, visual injury after approximately 10 d, 0 to 100 scale (0 no effect, 100 complete control); for pest or weed control at 31 g/ha: Postemergence, 31 g ai/ha, visual injury after approx. 10 d, 0 to 100 scale, 0 no effect, 100 complete control
Summary of the method: as §1

[11] = test system: pigweed (Amaranthus retroflexus); test: Test A postemergence; details: Amaranthus retroflexus, post-emergence, 240 h, read-out: Plant response rating, Pigweed; for pest or weed control at 125 g/ha: 125 g ai/ha, postemergence, visual injury after approximately 10 d, 0 to 100 scale (0 no effect, 100 complete control); for pest or weed control at 31 g/ha: Postemergence, 31 g ai/ha, visual injury after approx. 10 d, 0 to 100 scale, 0 no effect, 100 complete control
Summary of the method: as §1

[12] = test system: giant foxtail (Setaria faberii); test: Test A postemergence; details: Setaria faberi, post-emergence, 240 h, read-out: Plant response rating, Foxtail, Giant; for pest or weed control at 125 g/ha: 125 g ai/ha, postemergence, visual injury after approximately 10 d, 0 to 100 scale (0 no effect, 100 complete control); for pest or weed control at 31 g/ha: Postemergence, 31 g ai/ha, visual injury after approx. 10 d, 0 to 100 scale, 0 no effect, 100 complete control
Summary of the method: as §1

[13] = test system: ryegrass, Italian (Italian ryegrass, Lolium multiflorum); test: Test A postemergence; details: Lolium multiflorum, post-emergence, 240 h, read-out: Plant response rating, Ryegrass, Italian; for pest or weed control at 125 g/ha: 125 g ai/ha, postemergence, visual injury after approximately 10 d, 0 to 100 scale (0 no effect, 100 complete control); for pest or weed control at 31 g/ha: Postemergence, 31 g ai/ha, visual injury after approx. 10 d, 0 to 100 scale, 0 no effect, 100 complete control
Summary of the method: as §1

[14] = test system: wheat (Triticum aestivum); test: Test A postemergence; details: Triticum aestivum, post-emergence, 240 h, Postemergence, 31 g ai/ha; visual injury after approx. 10 d; 0 to 100 scale, 0 no effect, 100 complete control; read-out: Plant response rating, Wheat
Summary of the method: as §1

[15] = test system: blackgrass (Alopecurus myosuroides); test: Test A postemergence; details: Alopecurus myosuroides, post-emergence, 240 h, read-out: Plant response rating, Blackgrass; for pest or weed control at 125 g/ha: 125 g ai/ha, postemergence, visual injury after approximately 10 d, 0 to 100 scale (0 no effect, 100 complete control); for pest or weed control at 31 g/ha: Postemergence, 31 g ai/ha, visual injury after approx. 10 d, 0 to 100 scale, 0 no effect, 100 complete control
Summary of the method: as §1

corn (Zea mays) = test: Test A postemergence; details: Zea mays, post-emergence, 240 h; for Corn plant response rating (crop injury, 0 = no effect, 100 = complete kill) at 125 g/ha: 125 g ai/ha, postemergence, visual injury after approximately 10 d, 0 to 100 scale (0 no effect, 100 complete control); for Corn plant response rating (crop injury, 0 = no effect, 100 = complete kill) at 31 g/ha: Postemergence, 31 g ai/ha, visual injury after approx. 10 d, 0 to 100 scale, 100 complete control
Summary of the method: as §1

C/C=C/C1CNC(=O)C1C(=O)Nc1ccccc1F (centres unmarked) [Compound 792]
pest or weed control at 125 g/ha [1]: 0% | pest or weed control at 31 g/ha [1]: 0% | pest or weed control at 125 g/ha [2]: 0% | pest or weed control at 31 g/ha [2]: 0% | pest or weed control at 125 g/ha (Kochia (Kochia scoparia) [3]): 0% | pest or weed control at 31 g/ha (Kochia (Kochia scoparia) [3]): 0% | pest or weed control at 125 g/ha [4]: 0% | pest or weed control at 31 g/ha [4]: 0% | pest or weed control at 125 g/ha [5]: 0% | pest or weed control at 31 g/ha [5]: 0% | pest or weed control at 125 g/ha [6]: 0% | pest or weed control at 31 g/ha [6]: 0% | pest or weed control at 125 g/ha [7]: 0% | pest or weed control at 31 g/ha [7]: 0% | pest or weed control at 125 g/ha [8]: 0% | pest or weed control at 31 g/ha [8]: 0% | pest or weed control at 125 g/ha [9]: 0% | pest or weed control at 31 g/ha [9]: 0% | pest or weed control at 125 g/ha (Kochia (Kochia scoparia) [10]): 0% | pest or weed control at 31 g/ha (Kochia (Kochia scoparia) [10]): 0% | pest or weed control at 125 g/ha [11]: 0% | pest or weed control at 31 g/ha [11]: 0% | pest or weed control at 125 g/ha [12]: 0% | pest or weed control at 31 g/ha [12]: 0% | pest or weed control at 125 g/ha [13]: 0% | pest or weed control at 31 g/ha [13]: 0% | plant injury at 31 g/ha [14]: 0% | pest or weed control at 125 g/ha [15]: 0% | pest or weed control at 31 g/ha [15]: 0% | Corn plant response rating (crop injury, 0 = no effect, 100 = complete kill) at 125 g/ha (corn (Zea mays)): 0% | Corn plant response rating (crop injury, 0 = no effect, 100 = complete kill) at 31 g/ha (corn (Zea mays)): 0%

O=C1NCC[C@H](c2ccc(Cl)cc2)[C@H]1C(=O)Nc1cccc(F)c1F [Compound 795]
pest or weed control at 125 g/ha [1]: 80% | pest or weed control at 31 g/ha [1]: 30% | pest or weed control at 125 g/ha [2]: 0% | pest or weed control at 31 g/ha [2]: 0% | pest or weed control at 125 g/ha (Kochia (Kochia scoparia) [3]): 0% | pest or weed control at 31 g/ha (Kochia (Kochia scoparia) [3]): 0% | pest or weed control at 125 g/ha [4]: 0% | pest or weed control at 31 g/ha [4]: 0% | pest or weed control at 125 g/ha [5]: 70% | pest or weed control at 31 g/ha [5]: 0% | pest or weed control at 125 g/ha [6]: 0% | pest or weed control at 31 g/ha [6]: 0% | pest or weed control at 125 g/ha [7]: 70% | pest or weed control at 31 g/ha [7]: 20% | pest or weed control at 125 g/ha [8]: 0% | pest or weed control at 31 g/ha [8]: 0% | pest or weed control at 125 g/ha [9]: 0% | pest or weed control at 31 g/ha [9]: 0% | pest or weed control at 125 g/ha (Kochia (Kochia scoparia) [10]): 0% | pest or weed control at 31 g/ha (Kochia (Kochia scoparia) [10]): 0% | pest or weed control at 125 g/ha [11]: 0% | pest or weed control at 31 g/ha [11]: 0% | pest or weed control at 125 g/ha [12]: 50% | pest or weed control at 31 g/ha [12]: 0% | pest or weed control at 125 g/ha [13]: 0% | pest or weed control at 31 g/ha [13]: 0% | plant injury at 31 g/ha [14]: 0% | pest or weed control at 125 g/ha [15]: 0% | pest or weed control at 31 g/ha [15]: 0% | Corn plant response rating (crop injury, 0 = no effect, 100 = complete kill) at 125 g/ha (corn (Zea mays)): 0% | Corn plant response rating (crop injury, 0 = no effect, 100 = complete kill) at 31 g/ha (corn (Zea mays)): 0%
